Common to all, as to type: cell-based
One test has as its system A2780 cells. Nature of the test: Cell proliferation assay (A2780). Conditions: Homo sapiens, 168 h, 7 days.
The next test concerns HCC1806 cells. Kind of test: Cell proliferation assay (HCC1806). Conditions: Homo sapiens, 168 h, 7 days. The protocol:
Cells are counted, diluted to desired density and 40 μL of cell suspension is added into each 384-well tissue-culture treated plates. Plates are incubated in Tissue Culture incubator at 37° C./5% C02 overnight.
Next day, 40 nl test compounds that are prepared from source plates are transferred to the seeded cells from overnight. Plates are incubated at 37° C./5% C02 for a total of 7 days. After 7-day incubation, plates are equilibrated to room temperature and 30 ul of Cell Counting-Lite is added to each well for a 30 min incubation followed by reading on EnVision.
The letter codes for the cell proliferation assay in A2780, HCC1806, and MDA-MB-436 cells include: A (<10 nM), B (>10-100 nM), C (>100-1000 nM), D (>1000-10000 nM), E (>10000 nM), and “-” is not tested.

The next test deals with MDA-MB-436 cells. Nature of the test: Cell proliferation assay (MDA-MB-436). Conditions: Homo sapiens, 168 h, 7 days.
The target in the next test is PARP1 (Homo sapiens, UniProt P09874). Nature of the test: PARP trapping assay in U2OS cells. Further details: endogenous in cells; host or cells: U2OS. Particulars: U2OS cells, MMS, 4 hrs; read-out: PARP Trapping (U2OS). An outline of the steps:
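U2OS cells co-treated with compounds and MMS for 4 h, then soluble proteins extracted with 0.5% Triton X-100, MeOH-fixed and immunostained for PARP1. Chromatin-bound PARP1 quantified as AF488 intensity per DAPI-segmented nucleus; potencies reported as letter-code bins.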

Test [1] deals with Poly/Mono-ADP Ribose in U2OS cells. Nature of the test: PAR in cell western assay (parylation) in U2OS cells. Particulars: Homo sapiens; U2OS cells, 6 hrs, 2 mM H2O2; read-out: Parylation (U2OS). Put shortly:
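U2OS cells treated with compound for 6 h, then 2 mM H2O2 for 10 min to induce DNA damage. After methanol fixation, cells stained overnight at 4 °C with anti-mono/poly-ADP-ribose antibody and imaged by infrared in-cell western, normalized to CellTag 700; reported as % control inhibition.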

PARP1, sequence (P09874 whole entry): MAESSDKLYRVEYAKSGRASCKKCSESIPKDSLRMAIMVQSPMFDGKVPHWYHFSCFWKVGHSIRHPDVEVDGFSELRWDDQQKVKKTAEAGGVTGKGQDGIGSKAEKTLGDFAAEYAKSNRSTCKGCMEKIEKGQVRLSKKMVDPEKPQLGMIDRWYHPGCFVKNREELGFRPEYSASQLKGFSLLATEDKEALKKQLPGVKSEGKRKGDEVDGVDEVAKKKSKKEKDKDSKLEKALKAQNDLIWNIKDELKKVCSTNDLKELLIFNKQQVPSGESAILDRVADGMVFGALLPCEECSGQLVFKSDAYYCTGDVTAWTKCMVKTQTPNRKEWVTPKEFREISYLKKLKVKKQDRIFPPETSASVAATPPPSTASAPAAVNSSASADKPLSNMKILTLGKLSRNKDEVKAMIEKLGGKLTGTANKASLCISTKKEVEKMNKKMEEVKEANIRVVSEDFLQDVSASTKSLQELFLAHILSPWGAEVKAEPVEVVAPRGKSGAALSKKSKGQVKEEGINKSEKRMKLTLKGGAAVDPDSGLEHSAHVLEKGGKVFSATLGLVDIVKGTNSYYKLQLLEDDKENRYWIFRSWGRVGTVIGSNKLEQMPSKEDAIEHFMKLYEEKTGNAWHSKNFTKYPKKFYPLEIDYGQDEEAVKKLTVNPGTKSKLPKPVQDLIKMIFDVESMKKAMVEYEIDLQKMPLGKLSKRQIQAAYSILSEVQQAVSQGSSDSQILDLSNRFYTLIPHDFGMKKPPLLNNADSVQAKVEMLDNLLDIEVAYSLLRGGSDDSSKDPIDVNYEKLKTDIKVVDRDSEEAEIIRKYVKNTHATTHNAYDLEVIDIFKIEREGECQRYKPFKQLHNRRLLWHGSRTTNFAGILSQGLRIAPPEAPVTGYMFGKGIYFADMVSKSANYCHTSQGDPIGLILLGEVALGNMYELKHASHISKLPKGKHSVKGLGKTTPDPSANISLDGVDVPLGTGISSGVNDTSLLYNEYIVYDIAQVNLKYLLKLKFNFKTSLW

In the case of `CCc1cccc(-c2cnc(C(=O)NC34CCC(CN5CCN(CC(=O)N6CCN(C(=O)c7cc(Cc8n[nH]c(=O)c9ccccc89)ccc7F)CC6)CC5)(CC3)OC4)c(NC(=O)OC(C)(C)C)c2)c1` [Compound I-800], the IC50 with A2780 cells is 100 to 1000 nM; in the test with HCC1806 cells, 100 to 1000 nM; in the test on MDA-MB-436 cells it was below 10 nM; at PARP1, 10 to 100 nM; in test [1] it was 100 to 1000 nM.
With `CC(C)(C)OC(=O)N[C@@H](C(=O)N1CCC(C)(OC2CCN(CC(=O)N3CCN(C(=O)c4cc(Cc5n[nH]c(=O)c6ccccc56)ccc4F)CC3)CC2)CC1)C1CCCCC1` [Compound I-871], the IC50 is 100 to 1000 nM with A2780 cells; 100 to 1000 nM in the test with HCC1806 cells; below 10 nM in the test on MDA-MB-436 cells; 10 to 100 nM at PARP1; 10 to 100 nM in test [1].
Turning to `CC1(C(=O)N2CC(c3cccc(C(=O)N[C@@H](C(=O)N4CCC(OC5CCN(CC(=O)N6CCN(C(=O)c7cc(Cc8n[nH]c(=O)c9ccccc89)ccc7F)CC6)CC5)CC4)C4CCCCC4)c3F)CCC2(C)C)CC1` (some centres unmarked) [Compound I-884], the IC50 is 10 to 100 nM in the test with A2780 cells; 10 to 100 nM with HCC1806 cells; below 10 nM in the test on MDA-MB-436 cells; 10 to 100 nM at PARP1; 100 to 1000 nM in test [1].
As for `CCc1cccc(-c2cnc(C(=O)NCCOCCNCC(=O)N3CCN(C(=O)c4cc(Cc5n[nH]c(=O)c6ccccc56)ccc4F)CC3)c(N)c2)c1` [Compound I-402], the IC50 was 10 to 100 nM in the test on A2780 cells; 10 to 100 nM in the test with HCC1806 cells; below 10 nM with MDA-MB-436 cells; 100 to 1000 nM on PARP1; 10 to 100 nM in test [1].
Consider `O=C(CN1CCN(CC2CCN(C(=O)c3c(F)cc(-c4ccccn4)cc3F)CC2)CC1)N1CCN(C(=O)c2cc(Cc3n[nH]c(=O)c4ccccc34)ccc2F)CC1` [Compound I-769], for which the IC50 with A2780 cells was 10 to 100 nM; in the test with HCC1806 cells, 10 to 100 nM; in the test with MDA-MB-436 cells, below 10 nM; at PARP1, below 10 nM; in test [1], below 10 nM.
On to `CC1(OC(=O)N[C@@H](C(=O)N2CCC(OC3CCN(CC(=O)N4CCN(C(=O)c5cc(Cc6n[nH]c(=O)c7ccccc67)ccc5F)CC4)CC3)CC2)C2CCCCC2)CCC1` [Compound I-749], for which the IC50 in the test on A2780 cells is 10 to 100 nM; with HCC1806 cells, 10 to 100 nM; with MDA-MB-436 cells, below 10 nM; at PARP1 it was 10 to 100 nM; in test [1], 10 to 100 nM.
Take `CC(C)(C)OC(=O)Nc1cc(-c2cccc(C#N)c2)cnc1C(=O)NCCOCCNCC(=O)N1CCN(C(=O)c2cc(Cc3n[nH]c(=O)c4ccccc34)ccc2F)CC1` [Compound I-818]: the IC50 with A2780 cells is 10 to 100 nM; with HCC1806 cells, 100 to 1000 nM; with MDA-MB-436 cells it was below 10 nM; at PARP1, 100 to 1000 nM; in test [1], 10 to 100 nM.
For the molecule `CC(C)(C)OC(=O)N1CCCC(c2cccc(Oc3cnnc(N4CCC(OC5CCN(CC(=O)N6CCN(C(=O)c7cc(Cc8n[nH]c(=O)c9ccccc89)ccc7F)CC6)CC5)CC4)c3)c2)C1` (centres unmarked) [Compound I-870], the IC50 in the test with A2780 cells is 10 to 100 nM; in the test on HCC1806 cells it was 10 to 100 nM; with MDA-MB-436 cells it was below 10 nM; at PARP1, 10 to 100 nM; in test [1] it was 10 to 100 nM.
Turning to `O=C(CN1CCN(CC2CCN(C(=O)c3c(F)cc(-c4ccncn4)cc3F)CC2)CC1)N1CCN(C(=O)c2cc(Cc3n[nH]c(=O)c4ccccc34)ccc2F)CC1` [Compound I-768], the IC50 in the test with A2780 cells was 100 to 1000 nM; in the test on HCC1806 cells it was 100 to 1000 nM; in the test with MDA-MB-436 cells, below 10 nM; on PARP1 it was 10 to 100 nM; in test [1], 10 to 100 nM.
On to `CCc1cccc(-c2cc(F)c(C(=O)N3CCC(OC4CCN(CC(=O)N5CCN(C(=O)c6cc(Cc7n[nH]c(=O)c8ccccc78)ccc6F)CC5)CC4)CC3)c(F)c2)c1` [Compound I-590], for which the IC50 was below 10 nM in the test on A2780 cells; 10 to 100 nM in the test with HCC1806 cells; below 10 nM in the test with MDA-MB-436 cells; 10 to 100 nM at PARP1; below 10 nM in test [1].

Values taken from US20250127907A1, “PARP INHIBITORS” (Stablix, Inc., priority 2023, published 2025).
